# Columns and labels:
# [1] = tested on: TLR9-activated human plasmacytoid dendritic cells (pDCs); experiment: IFN-α secretion (ELISA) by purified pDCs activated with TLR9 ligand alone (CpG1018 / CpG C274); format: cell-based; settings: without CXCL4; various dilutions
# Description: (§1) PBMCs were prepared using Ficoll-Paque density gradient from fresh blood under internal Institutional Review Board-approved protocols. pDCs were isolated as previously described (Guiducci et al. 2008) using either using negative depletion (Miltenyi Biotech) or following cell sorting using a […]. All BDCA4+ cells also express BDCA2 (results not shown). As a result, pure pDCs were obtained and no markers for neutrophils (CD66) or myeloid cells were found by PCR.
# (§2) For the TLR9 activation in pDCs, the cells were incubated in complete media alone, or CpG-B 1018 (0.25 or 1 μM), or CpG-C 274 at similar concentrations. In some assays, cells were also incubated with 10 μg/ml CXCL4 (R&D systems).
# (§3) Supernatant from B cells and pDCs 24 hour culture was used for quantification of secreted IFNα with the use of an enzyme-linked immunosorbent assay (ELISA) (Mabtech) performed according to the manufacturer's protocol.
# (§4) Data were analyzed using a Mann-Whitney U-test (t test using non parametric criteria for independent samples). Comparisons between PBMC and pDCs-depleted PBMC were tested using a parametric paired t-test. All analyses were performed using Prism software (GraphPad Software). Differences were considered significant at a P level less than 0.05 with *p<0.05; **p<0.01; ***p<0.001.
# [2] = tested on: TLR9+CXCL4-activated human plasmacytoid dendritic cells (pDCs); experiment: IFN-α secretion (ELISA) by purified pDCs activated with CpG-B (TLR9 ligand) + CXCL4; format: cell-based; settings: CXCL4 present
# Description: as §1, §2, §3, §4
structure (smiles),measurement,setting,value
"CC(=O)N[C@H]1[C@H]([C@H](O)[C@H](O)CO)O[C@@](O)(C(=O)O)C[C@@H]1O [N-Acetylneuraminic acid, 5-(acetylamino)-3,5-dideoxy-D-glycero-α-D-galacto-non-2-ulopyranosonic acid]","inhibitory effect on TLR9-activated pDCs, IFN-α production relative to the TLR9 agonist CpG C274",[1],significant inhibitory effect
same,"inhibitory effect on TLR9-activated pDCs, IFN-α production relative to CpG-CXCL4",[2],significant inhibitory effect

# From patent publication US20240307423A1, “FRACTIONS OF, AND MOLECULES RELEASED IN, PROTEIN RICH PLASMA WHICH INHIBIT IMMUNE RESPONSES AND REDUCE INFLAMMATION, AND METHODS OF OBTAINING” (NEW YORK SOCIETY FOR THE RELIEF OF THE RUPTURED AND …, priority 2021, published 2024)
